Test results reported in the supplement of paper PMC10307832.

Key:
Assay in all cases: relative viability (nuclei count vs DMSO), 5 days (fraction); higher = more cells survive
RU-SKI 43 + Foretinib = compound: CC[C@@H](C)CNCC(=O)N1CCC2=C([C@@H]1COC3=CC=CC(=C3)C)C=CS2 [RU-SKI 43] + COc1cc2c(Oc3ccc(NC(=O)C4(C(=O)Nc5ccc(F)cc5)CC4)cc3F)ccnc2cc1OCCCN1CCOCC1 [Foretinib] (partner 0.25 µM)
How it was run: (§1)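 For relative viability, nuclei counts in treated wells were divided by those in vehicle wells. Lung cancer cell lines had been pin-tool dosed in 1536-well plates the day after seeding and cultured for 5 days, then fixed and stained in one step (final 0.05% Triton X-100, 1% formaldehyde, 1 ug/ml Hoechst) and imaged at 4×. Doses were one drug alone or a fixed anchor-drug dose plus five library-drug doses (not always all listed) in √10 steps, and values are duplicate-plate medians.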

RU-SKI 43 + Linsitinib = compound: CC[C@@H](C)CNCC(=O)N1CCC2=C([C@@H]1COC3=CC=CC(=C3)C)C=CS2 [RU-SKI 43] + C[C@]1(O)C[C@@H](c2nc(-c3ccc4ccc(-c5ccccc5)nc4c3)c3c(N)nccn32)C1 [Linsitinib] (partner 1 µM)
How it was run: as §1

MK-8033 + Linsitinib = compound: Cn1cc(-c2cnc3ccc4ccc(CS(=O)(=O)NCc5ccccn5)cc4c(=O)c3c2)cn1 [MK-8033] + C[C@]1(O)C[C@@H](c2nc(-c3ccc4ccc(-c5ccccc5)nc4c3)c3c(N)nccn32)C1 [Linsitinib] (partner 1 µM)
How it was run: as §1

MK-8033 + Tozasertib = compound: Cn1cc(-c2cnc3ccc4ccc(CS(=O)(=O)NCc5ccccn5)cc4c(=O)c3c2)cn1 [MK-8033] + Cc1cc(Nc2cc(N3CCN(C)CC3)nc(Sc3ccc(NC(=O)C4CC4)cc3)n2)n[nH]1 [Tozasertib] (partner 0.1 µM)
How it was run: as §1

Row | Cell Line | relative viability (RU-SKI 43 + Foretinib; first compound 0.1 µM) | relative viability (RU-SKI 43 + Foretinib; first compound 0.3162 µM) | relative viability (RU-SKI 43 + Foretinib; first compound 1 µM) | relative viability (RU-SKI 43 + Foretinib; first compound 3.162 µM) | relative viability (RU-SKI 43 + Foretinib; first compound 10 µM) | relative viability (RU-SKI 43 + Linsitinib; first compound 0.1 µM) | relative viability (RU-SKI 43 + Linsitinib; first compound 0.3162 µM) | relative viability (RU-SKI 43 + Linsitinib; first compound 1 µM) | relative viability (RU-SKI 43 + Linsitinib; first compound 3.162 µM) | relative viability (RU-SKI 43 + Linsitinib; first compound 10 µM) | relative viability (MK-8033 + Linsitinib; first compound 0.02 µM) | relative viability (MK-8033 + Linsitinib; first compound 0.06325 µM) | relative viability (MK-8033 + Linsitinib; first compound 0.2 µM) | relative viability (MK-8033 + Linsitinib; first compound 0.6325 µM) | relative viability (MK-8033 + Linsitinib; first compound 2 µM) | relative viability (MK-8033 + Tozasertib; first compound 0.02 µM) | relative viability (MK-8033 + Tozasertib; first compound 0.06325 µM) | relative viability (MK-8033 + Tozasertib; first compound 0.2 µM) | relative viability (MK-8033 + Tozasertib; first compound 0.6325 µM) | relative viability (MK-8033 + Tozasertib; first compound 2 µM)
1 | CAL-12T | 1.05 | 1.31 | 1.09 | 1.18 | 1.06 | 0.726 | 0.873 | 0.877 | 0.827 | 0.771 | 0.738 | 0.861 | 0.72 | 0.903 | 0.771 | 0.317 | 0.29 | 0.28 | 0.311 | 0.266
2 | COR-L23 | 0.914 | 1.19 | 1.24 | 1.04 | 0.842 | 0.971 | 0.847 | 0.815 | 0.83 | 1.09 | 0.88 | 0.849 | 0.824 | 0.993 | 0.902 | 0.198 | 0.187 | 0.164 | 0.164 | 0.117
3 | COR-L 105 | 0.995 | 0.903 | 1.18 | 1.04 | 0.736 | 0.955 | 1.08 | 1.02 | 1.08 | 0.945 | 0.868 | 1.04 | 0.838 | 0.902 | 0.915 | 0.311 | 0.377 | 0.338 | 0.349 | 0.345
4 | EKVX | 0.735 | 0.712 | 0.876 | 0.719 | 0.499 | 0.948 | 1.24 | 0.977 | 1.05 | 1 | 1 | 1.01 | 0.856 | 1.05 | 0.994 | 0.482 | 0.262 | 0.466 | 0.288 | 0.313
5 | EMC-BAC-2 | 1.01 | 0.998 | 1.04 | 1.01 | 0.986 | 0.811 | 0.982 | 0.895 | 0.838 | 0.851 | 0.774 | 0.771 | 0.744 | 0.893 | 0.791 | 0.295 | 0.254 | 0.281 | 0.265 | 0.298
6 | EPLC-272H | 0.717 | 0.677 | 0.745 | 0.744 | 0.592 | 1.35 | 1.37 | 1.41 | – | 1.07 | 1.17 | – | 1.01 | 1.07 | 1.17 | 0.27 | 0.214 | 0.279 | 0.32 | 0.152
7 | H3255 | 0.914 | 0.83 | 0.817 | 0.708 | 0.841 | 0.913 | 0.926 | 0.943 | 1.09 | 0.891 | 1.03 | 0.815 | 0.903 | 0.991 | 0.826 | 0.581 | 0.501 | 0.554 | 0.609 | 0.602
8 | HARA | 1.06 | 1.25 | 1.01 | 1.25 | 1.13 | 1.03 | 1.02 | 1.09 | 1.05 | 0.851 | 0.779 | 0.78 | 0.893 | 1.03 | 0.897 | 0.104 | 0.0979 | 0.111 | 0.136 | 0.112
9 | HCC-15 | 1.1 | 1.17 | 1.16 | 1.11 | 1.04 | 0.964 | 1.1 | 0.988 | 0.946 | 0.882 | 0.763 | 0.851 | 0.83 | 0.911 | 0.801 | 0.498 | 0.3 | 0.35 | 0.427 | 0.352
10 | HCC-78 | 0.541 | 0.6 | 0.592 | 0.591 | 0.479 | 0.576 | 0.551 | 0.712 | 0.344 | 0.551 | 0.474 | 0.501 | 0.474 | – | 0.581 | 0.482 | – | 0.414 | 1.83 | 0.404
11 | HCC-366 | 0.975 | 1.01 | 0.994 | 1.04 | 0.811 | 0.604 | 1.83 | 0.694 | 0.608 | 0.592 | 0.675 | 0.565 | 0.619 | 0.587 | 0.643 | 0.114 | 0.131 | 0.0893 | 0.102 | 0.0504
12 | HCC-827 | 1.01 | 1.11 | 1.11 | 1.07 | 1.01 | 0.96 | 0.936 | 1.04 | 1.02 | 0.734 | 0.957 | – | 0.947 | 0.968 | 0.948 | 0.412 | – | 0.402 | 0.4 | 0.401
13 | HOP-62 | 1.1 | 1.2 | 1.15 | 1.24 | 1.13 | 1.04 | 0.938 | 1.1 | 1.17 | 1.04 | 0.62 | 0.99 | 0.898 | 0.895 | 1.01 | 0.406 | 0.339 | 0.359 | 0.352 | 0.344
14 | LC-2-ad | 0.929 | 0.922 | 0.908 | 1.02 | 0.838 | 0.818 | 0.831 | 0.899 | 0.857 | 0.726 | 0.82 | 0.75 | 0.796 | 0.822 | 0.795 | 0.441 | 0.385 | – | 0.512 | 0.409
15 | LCLC-97TM1 | 0.945 | 0.938 | 1.05 | 1 | 1.04 | 0.221 | – | 0.172 | 0.201 | 0.182 | 0.173 | 0.149 | 0.202 | 0.181 | 0.207 | 0.2 | 0.237 | 0.241 | 0.223 | 0.216
16 | LCLC-103H | 0.759 | 0.896 | 0.91 | 0.843 | 0.783 | 1.04 | 1.11 | 1.05 | 1.2 | 1.15 | 1.01 | 1.04 | 1.05 | 1.11 | 1.17 | 0.489 | 0.556 | 0.438 | 0.55 | 0.461
